The results in this text go back to PubChem BioAssay AID328 (DTP/NCI, 2004).

In this test the test system is BDF1 mice, P388 leukemia ip, median survival T/C. Kind of test: NCI In Vivo Anticancer Drug Screen. Data for tumor model P388 Leukemia (intraperitoneal) in B6D2F1 (BDF1) mice. The following applies: endpoint: median survival time, higher = longer survival. Put shortly:
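Steps: implant the tumour, treat one group with compound and another with vehicle, record survival, then divide treated by control.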

Setting [1] is: dose: 100.0 mg/kg/injection, schedule: Q04DX003 (ip), vehicle: Klucel (hydroxypropylcellulose) (HPC).
Setting [2] is: dose: 200.0 mg/kg/injection, schedule: Q04DX003 (ip), vehicle: Klucel (hydroxypropylcellulose) (HPC).
[3] abbreviates: dose: 100.0 mg/kg/injection, schedule: Q01DX009 (ip), vehicle: saline.
Setting [4] is: dose: 400.0 mg/kg/injection, schedule: Q01DX009 (ip), vehicle: saline.

Several values for one entry are separate records, joined by “and”; a condition that tells them apart may be missing. Equal values may be shown once. Toxic doses and inconclusive results are not listed.

Take `O=c1ccc(=O)c2c(=O)c3ccccc3c(=O)c1=2`: the T/C (dose: 25.0 mg/kg/injection, schedule: Q01DX009 (ip), vehicle: Klucel (hydroxypropylcellulose) (HPC)) was 104 % of control; the T/C (dose: 50.0 mg/kg/injection, schedule: Q01DX009 (ip), vehicle: Klucel (hydroxypropylcellulose) (HPC)) is 103 % of control; the T/C (dose: 50.0 mg/kg/injection, schedule: Q04DX003 (ip), vehicle: Klucel (hydroxypropylcellulose) (HPC)) was 95 % of control; the T/C (dose: 100.0 mg/kg/injection, schedule: Q01DX009 (ip), vehicle: Klucel (hydroxypropylcellulose) (HPC)) was 99 % of control; the T/C under setting [1] is 104 % of control; the T/C under setting [2] was 88 % of control.

With `C=CCSc1nc(N)nc2c1ncn2C1CC(O)C(CO)O1` (centres undefined), the T/C is 102 % of control (dose: 25.0 mg/kg/injection, schedule: Q01DX009 (ip), vehicle: saline); 114 % of control and 111 % of control (dose: 50.0 mg/kg/injection, schedule: Q01DX009 (ip), vehicle: saline); 123 % of control and 95 % of control under setting [3]; 104 % of control (dose: 100.0 mg/kg/injection, schedule: Q04DX003 (ip), vehicle: saline); 181 % of control (dose: 200.0 mg/kg/injection, schedule: Q01DX009 (ip), vehicle: saline with Tween-80); 122 % of control and 94 % of control and 100 % of control (dose: 200.0 mg/kg/injection, schedule: Q04DX003 (ip), vehicle: saline). For the same compound, the T/C is 154 % of control (dose: 300.0 mg/kg/injection, schedule: Q01DX009 (ip), vehicle: saline with Tween-80); 107 % of control under setting [4]; 99 % of control and 104 % of control (dose: 400.0 mg/kg/injection, schedule: Q04DX003 (ip), vehicle: saline).

`O=C1CCCC2C3CC(CN12)C1CC(O)CCN1C3` (centres undefined): the T/C (dose: 20.0 mg/kg/injection, schedule: Q01DX010 (ip), vehicle: saline) is 90 % of control; the T/C (dose: 40.0 mg/kg/injection, schedule: Q01DX010 (ip), vehicle: saline) is 100 % of control; the T/C (dose: 80.0 mg/kg/injection, schedule: Q01DX010 (ip), vehicle: saline) is 100 % of control.

As for `O=c1cc(-c2ccccc2)nc2ccccn12`, the T/C is, setting by setting: (dose: 12.5 mg/kg/injection, schedule: Q01DX001 (ip), vehicle: saline with Tween-80) 109 % of control; (dose: 25.0 mg/kg/injection, schedule: Q01DX001 (ip), vehicle: saline with Tween-80) 104 % of control; (dose: 50.0 mg/kg/injection, schedule: Q01DX001 (ip), vehicle: saline with Tween-80) 123 % of control.

For the compound `CC(C)n1c2c([n+](C)c1/C=C/c1ccccc1)C(=O)c1ccccc1C2=O`, the T/C is 109 % of control (dose: 0.5 mg/kg/injection, schedule: Q01DX010 (ip), vehicle: saline); 105 % of control (dose: 1.0 mg/kg/injection, schedule: Q01DX009 (ip), vehicle: Klucel (hydroxypropylcellulose) (HPC)); 122 % of control (dose: 2.0 mg/kg/injection, schedule: Q01DX010 (ip), vehicle: saline).

Take `CCC(=O)OCc1ccc(Cl)cc1`: the T/C reads like this: (dose: 75.0 mg/kg/injection, schedule: Q04DX003 (ip), vehicle: Klucel (hydroxypropylcellulose) (HPC)) 100 % of control; (dose: 150.0 mg/kg/injection, schedule: Q04DX003 (ip), vehicle: Klucel (hydroxypropylcellulose) (HPC)) 100 % of control; (dose: 300.0 mg/kg/injection, schedule: Q04DX003 (ip), vehicle: Klucel (hydroxypropylcellulose) (HPC)) 100 % of control.

As for `COc1cc([C@@H]2c3cc4c(cc3[C@H](O)[C@H]3COC(=O)[C@@H]23)OCO4)cc(OC)c1OC`, the T/C reads like this: (dose: 7.7 mg/kg/injection, schedule: Q01DX010 (ip), vehicle: carboxymethylcellulose (CMC)) 115 % of control; (dose: 12.0 mg/kg/injection, schedule: Q01DX009 (ip), vehicle: Klucel (hydroxypropylcellulose) (HPC)) 166 % of control; (dose: 18.0 mg/kg/injection, schedule: Q01DX009 (ip), vehicle: Klucel (hydroxypropylcellulose) (HPC)) 185 % of control; (dose: 27.0 mg/kg/injection, schedule: Q01DX009 (ip), vehicle: Klucel (hydroxypropylcellulose) (HPC)) 195 % of control; (dose: 30.8 mg/kg/injection, schedule: Q01DX010 (ip), vehicle: carboxymethylcellulose (CMC)) 210 % of control; (dose: 37.5 mg/kg/injection, schedule: Q04DX003 (ip), vehicle: saline sonified) 113 % of control. The T/C (dose: 40.0 mg/kg/injection, schedule: Q01DX009 (ip), vehicle: Klucel (hydroxypropylcellulose) (HPC)) was 233 % of control; the T/C (dose: 60.0 mg/kg/injection, schedule: Q01DX009 (ip), vehicle: Klucel (hydroxypropylcellulose) (HPC)) is 252 % of control; the T/C (dose: 75.0 mg/kg/injection, schedule: Q04DX003 (ip), vehicle: saline sonified) is 122 % of control; the T/C (dose: 150.0 mg/kg/injection, schedule: Q04DX003 (ip), vehicle: saline sonified) is 180 % of control and 204 % of control; the T/C (dose: 225.0 mg/kg/injection, schedule: Q04DX003 (ip), vehicle: saline sonified) is 300 % of control.

In the case of `CCCCCCCCCCCCCCCCCC(=O)Oc1ccc(OCc2ccccc2)cc1`, the T/C is, setting by setting: under setting [1], 100 % of control; under setting [2], 100 % of control; (dose: 400.0 mg/kg/injection, schedule: Q04DX003 (ip), vehicle: Klucel (hydroxypropylcellulose) (HPC)) 90 % of control.

`Clc1ccc(C[P+](c2ccccc2)(c2ccccc2)c2ccccc2)cc1Cl`: the T/C is 104 % of control (dose: 0.45 mg/kg/injection, schedule: Q01DX009 (ip), vehicle: saline); 100 % of control (dose: 0.9 mg/kg/injection, schedule: Q01DX009 (ip), vehicle: saline); 100 % of control (dose: 1.35 mg/kg/injection, schedule: Q01DX001 (ip), vehicle: saline); 91 % of control (dose: 1.8 mg/kg/injection, schedule: Q01DX009 (ip), vehicle: saline); 95 % of control (dose: 2.7 mg/kg/injection, schedule: Q01DX001 (ip), vehicle: saline); 108 % of control (dose: 3.6 mg/kg/injection, schedule: Q01DX009 (ip), vehicle: saline).

For the compound `O=C(Nc1ccc(Br)cc1)c1cc(Br)ccc1O`, the T/C runs as follows: (dose: 50.0 mg/kg/injection, schedule: Q01DX010 (ip), vehicle: steriod suspending solution) 104 % of control; (dose: 100.0 mg/kg/injection, schedule: Q01DX010 (ip), vehicle: steriod suspending solution) 100 % of control; (dose: 200.0 mg/kg/injection, schedule: Q01DX010 (ip), vehicle: steriod suspending solution) 100 % of control; (dose: 400.0 mg/kg/injection, schedule: Q01DX010 (ip), vehicle: steriod suspending solution) 109 % of control.

For `C=CCOP1(=O)OCC2OC(n3cnc4c(N)ncnc43)C(O)C2O1` (centres undefined), the T/C reads like this: under setting [3], 88 % of control; (dose: 200.0 mg/kg/injection, schedule: Q01DX009 (ip), vehicle: saline) 100 % of control; under setting [4], 88 % of control.
